IC50 and EC50 data for 56 molecules are collected here from US11091472B2, “PI-kinase inhibitors with anti-infective activity” (The Board of Trustees of the Leland Stanford Junior …, priority 2016, dated 2021).

SMILES strings stand for the structures.

By IC50 is commonly meant the concentration needed to halve the response being measured. High values mean weaker potency, low ones greater potency. The term EC50 denotes the concentration needed to bring the measured effect to its halfway point.

Assay [1] deals with PI4KIIIB (Bos taurus (Bovine), UniProt O02810). The assay is described as follows: PI4KIIIβ kinase assay (immunoprecipitated HA-tagged enzyme, [γ-32P]-ATP). Format: biochemical. The conditions noted are these: kinase activity.
In assay [2] the target is PI3K p110g (Homo sapiens (Human), UniProt P48736). Briefly: PI3K p110g kinase assay. Format: biochemical. Conditions: kinase activity.
Assay [3] addresses PI4KIIIA (Homo sapiens (Human), UniProt P42356). The assay is described as follows: PI4KIIIα kinase assay (immunoprecipitated HA-tagged enzyme, [γ-32P]-ATP). The format is biochemical. The conditions noted are these: kinase activity.
The target of assay [4] is PI3KC2G (Homo sapiens (Human), UniProt O75747). Briefly: PI3KC2G kinase assay. Conditions: kinase activity. The format is biochemical. As to the method: PI-kinase assay: Compounds are tested in C.1.1. PI kinase assays as described by Shokat et al., “A membrane capture assay for lipid kinase activity.” Nat. Protoc.
Selected compounds of Table 1 and 2 were prepared and tested for inhibition activity in a variety of kinase assays.

The test system of assay [5] is HRV. Briefly: Rhinovirus antiviral assay. The format is cell-based. The conditions noted are these: Human rhinovirus sp.; Table 5.
Assay [6] deals with EV71. The assay is described as follows: EV71 antiviral assay. Format: cell-based. The conditions noted are these: Enterovirus A, Table 5.

PI3K p110g, sequence (P48736 whole entry): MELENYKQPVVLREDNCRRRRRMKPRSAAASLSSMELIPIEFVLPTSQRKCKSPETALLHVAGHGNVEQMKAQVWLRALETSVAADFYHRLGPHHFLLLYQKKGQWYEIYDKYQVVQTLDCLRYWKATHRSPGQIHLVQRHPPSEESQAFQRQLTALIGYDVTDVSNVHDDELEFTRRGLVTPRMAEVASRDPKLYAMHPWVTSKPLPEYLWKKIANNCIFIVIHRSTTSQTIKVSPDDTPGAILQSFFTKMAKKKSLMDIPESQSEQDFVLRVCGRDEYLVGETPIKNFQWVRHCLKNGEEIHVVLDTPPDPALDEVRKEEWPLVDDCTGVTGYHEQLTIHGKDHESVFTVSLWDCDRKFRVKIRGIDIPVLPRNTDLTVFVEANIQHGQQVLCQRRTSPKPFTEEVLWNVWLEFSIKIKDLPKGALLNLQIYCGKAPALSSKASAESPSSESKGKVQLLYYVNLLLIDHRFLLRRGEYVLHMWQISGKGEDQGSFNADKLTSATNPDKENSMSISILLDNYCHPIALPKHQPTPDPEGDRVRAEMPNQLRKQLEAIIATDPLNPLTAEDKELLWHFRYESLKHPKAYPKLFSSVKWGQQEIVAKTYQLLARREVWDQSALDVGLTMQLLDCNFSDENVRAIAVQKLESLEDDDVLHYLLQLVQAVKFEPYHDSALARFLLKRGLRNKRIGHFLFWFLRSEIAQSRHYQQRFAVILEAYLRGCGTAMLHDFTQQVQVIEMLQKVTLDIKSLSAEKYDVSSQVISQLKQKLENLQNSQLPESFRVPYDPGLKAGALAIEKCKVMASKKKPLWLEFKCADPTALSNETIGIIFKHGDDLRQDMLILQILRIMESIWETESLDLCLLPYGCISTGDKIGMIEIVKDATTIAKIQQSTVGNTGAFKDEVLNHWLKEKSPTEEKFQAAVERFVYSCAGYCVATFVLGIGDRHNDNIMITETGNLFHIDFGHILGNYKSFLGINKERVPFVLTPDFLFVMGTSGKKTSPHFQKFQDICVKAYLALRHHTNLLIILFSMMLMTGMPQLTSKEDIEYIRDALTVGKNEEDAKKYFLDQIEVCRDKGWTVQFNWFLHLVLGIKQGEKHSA
PI4KIIIB, sequence (O02810 whole entry): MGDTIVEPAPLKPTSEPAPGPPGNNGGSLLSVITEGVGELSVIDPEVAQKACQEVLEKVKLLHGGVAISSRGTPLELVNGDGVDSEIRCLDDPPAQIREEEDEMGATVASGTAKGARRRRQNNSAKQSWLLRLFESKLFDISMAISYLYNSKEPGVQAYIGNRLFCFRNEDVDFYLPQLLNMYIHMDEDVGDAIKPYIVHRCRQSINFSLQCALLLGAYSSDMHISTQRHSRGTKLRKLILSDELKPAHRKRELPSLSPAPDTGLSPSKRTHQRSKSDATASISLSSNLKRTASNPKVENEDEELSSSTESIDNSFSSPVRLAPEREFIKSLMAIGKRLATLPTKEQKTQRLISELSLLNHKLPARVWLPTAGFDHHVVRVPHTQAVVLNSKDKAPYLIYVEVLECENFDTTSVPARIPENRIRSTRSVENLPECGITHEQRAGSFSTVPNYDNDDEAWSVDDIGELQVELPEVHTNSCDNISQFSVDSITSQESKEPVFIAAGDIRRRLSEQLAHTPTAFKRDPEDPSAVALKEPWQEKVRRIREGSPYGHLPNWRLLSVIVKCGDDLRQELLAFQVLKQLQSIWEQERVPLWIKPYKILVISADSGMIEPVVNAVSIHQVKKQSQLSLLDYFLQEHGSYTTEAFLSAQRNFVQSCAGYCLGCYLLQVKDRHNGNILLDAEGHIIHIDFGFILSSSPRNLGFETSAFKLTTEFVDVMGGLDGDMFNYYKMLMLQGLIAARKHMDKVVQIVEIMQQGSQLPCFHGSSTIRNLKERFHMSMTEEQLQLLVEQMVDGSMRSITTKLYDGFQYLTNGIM
PI4KIIIA, sequence (P42356 whole entry): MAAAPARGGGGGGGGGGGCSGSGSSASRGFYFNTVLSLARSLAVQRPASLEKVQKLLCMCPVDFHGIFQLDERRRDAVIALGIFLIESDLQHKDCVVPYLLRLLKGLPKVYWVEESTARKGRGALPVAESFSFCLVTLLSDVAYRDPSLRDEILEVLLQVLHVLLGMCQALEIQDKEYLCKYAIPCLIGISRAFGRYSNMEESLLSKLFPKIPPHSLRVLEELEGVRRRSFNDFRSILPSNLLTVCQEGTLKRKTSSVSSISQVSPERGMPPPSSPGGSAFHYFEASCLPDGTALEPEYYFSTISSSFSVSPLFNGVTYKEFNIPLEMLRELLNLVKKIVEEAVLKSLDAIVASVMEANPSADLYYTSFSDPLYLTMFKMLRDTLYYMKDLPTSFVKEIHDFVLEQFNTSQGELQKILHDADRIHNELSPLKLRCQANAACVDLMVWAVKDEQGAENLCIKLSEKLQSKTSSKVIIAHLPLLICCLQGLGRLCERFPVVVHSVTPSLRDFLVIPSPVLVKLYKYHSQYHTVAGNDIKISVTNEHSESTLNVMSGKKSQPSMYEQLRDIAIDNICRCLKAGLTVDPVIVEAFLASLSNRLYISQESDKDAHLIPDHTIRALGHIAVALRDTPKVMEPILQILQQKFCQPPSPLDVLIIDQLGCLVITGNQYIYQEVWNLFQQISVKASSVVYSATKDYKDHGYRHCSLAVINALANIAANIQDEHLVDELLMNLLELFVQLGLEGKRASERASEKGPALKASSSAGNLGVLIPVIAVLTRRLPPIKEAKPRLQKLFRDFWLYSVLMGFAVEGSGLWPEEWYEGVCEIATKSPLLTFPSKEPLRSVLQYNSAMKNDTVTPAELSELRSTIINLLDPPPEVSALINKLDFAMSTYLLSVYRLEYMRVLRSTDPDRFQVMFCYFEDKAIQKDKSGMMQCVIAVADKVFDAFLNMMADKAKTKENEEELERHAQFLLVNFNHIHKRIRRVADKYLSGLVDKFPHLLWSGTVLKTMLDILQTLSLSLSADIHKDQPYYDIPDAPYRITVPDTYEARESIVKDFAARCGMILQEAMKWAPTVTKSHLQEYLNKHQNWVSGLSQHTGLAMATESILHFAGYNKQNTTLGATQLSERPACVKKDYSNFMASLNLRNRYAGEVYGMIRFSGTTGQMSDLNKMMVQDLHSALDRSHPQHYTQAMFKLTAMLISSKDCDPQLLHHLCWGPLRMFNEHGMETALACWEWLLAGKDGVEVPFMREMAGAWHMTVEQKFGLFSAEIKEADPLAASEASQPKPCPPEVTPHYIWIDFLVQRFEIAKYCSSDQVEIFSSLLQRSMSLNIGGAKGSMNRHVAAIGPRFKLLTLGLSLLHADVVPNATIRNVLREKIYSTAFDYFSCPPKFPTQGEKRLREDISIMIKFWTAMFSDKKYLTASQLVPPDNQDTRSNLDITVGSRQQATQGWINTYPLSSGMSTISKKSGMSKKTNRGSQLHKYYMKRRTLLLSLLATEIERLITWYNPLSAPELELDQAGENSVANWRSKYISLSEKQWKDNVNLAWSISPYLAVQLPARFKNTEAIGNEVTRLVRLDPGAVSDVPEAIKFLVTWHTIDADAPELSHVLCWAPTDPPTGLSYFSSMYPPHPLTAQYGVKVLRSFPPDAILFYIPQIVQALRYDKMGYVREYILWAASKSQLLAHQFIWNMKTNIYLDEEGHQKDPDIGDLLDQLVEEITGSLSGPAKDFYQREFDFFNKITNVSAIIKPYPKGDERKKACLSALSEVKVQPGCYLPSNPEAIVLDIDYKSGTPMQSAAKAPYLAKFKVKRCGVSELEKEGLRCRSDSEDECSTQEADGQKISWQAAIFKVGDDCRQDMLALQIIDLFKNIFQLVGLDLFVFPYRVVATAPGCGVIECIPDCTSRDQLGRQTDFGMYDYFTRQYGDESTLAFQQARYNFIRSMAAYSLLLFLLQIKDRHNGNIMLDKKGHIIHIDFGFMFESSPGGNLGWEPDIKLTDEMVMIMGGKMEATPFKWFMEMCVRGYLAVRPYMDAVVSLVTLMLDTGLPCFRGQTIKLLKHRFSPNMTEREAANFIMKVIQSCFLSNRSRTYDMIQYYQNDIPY

In turn, `COc1ccc(-c2sc(NC(=O)C3CCCC3)nc2C)cc1S(=O)(=O)N[C@H]1CC[C@H](O)CC1` [Compound S-9] yielded an IC50 in assay [1] below 0.1 µM. With `COc1ccc(-c2sc(NC(=O)C3CCCC3)nc2C)cc1S(=O)(=O)Nc1ccc(CO)cc1` [Compound S-41], the IC50 in assay [1] is below 0.1 µM. As to `COc1ccc(-c2sc(NC(=O)Cc3ccccc3)nc2C)cc1S(=O)(=O)Nc1ccc(O)cc1` [Compound S-49], in assay [1], the IC50 was below 0.1 µM.

With `COc1ccc(-c2sc(NC(=O)CC3CCCC3)nc2C)cc1S(=O)(=O)Nc1ccc(C)nc1` [Compound S-100], the IC50 in assay [1] is 0.1 to 1 µM; in assay [2] it was above 10 µM; in assay [3] it was above 10 µM. The molecule `COc1ccc(-c2sc(NCC3CCCCC3)nc2C)cc1S(=O)(=O)NC1CCNCC1` [Compound S-123] gave a concentration for half-maximal inhibition (IC50) in assay [1] below 0.1 µM. Take `COc1ccc(-c2sc(NCC3CCCCC3)nc2C)cc1S(=O)(=O)NC1CC1` [Compound S-127]: the IC50 in assay [4] is above 10 µM; in assay [1], 0.1 to 1 µM; in assay [2], above 10 µM; in assay [3], above 10 µM. For `COc1ccc(-c2sc(NC3CCCCC3)nc2C)cc1S(=O)(=O)NC1CCCCCC1` [Compound S-131], the half-inhibitory concentration (IC50) is above 10 µM in assay [4], 0.1 to 1 µM in assay [1] and above 10 µM in assay [3]. In turn, `COc1ccc(-c2sc(NCC3CCCCC3)nc2C)cc1S(=O)(=O)NC1CCN(C2CCCC2)CC1` [Compound S-133] yielded an IC50 in assay [1] below 0.1 µM. On the same count and under the same terms, under `COc1ccc(-c2sc(NCC3CCCCC3)nc2C)cc1S(=O)(=O)NC1CCN(C(C)C)CC1` [Compound S-134] stands below 0.1 µM. In assay [1], `COc1ccc(-c2sc(NCC3CCCCC3)nc2C)cc1S(=O)(=O)NC1CCN(C2CC2)CC1` [Compound S-135] displayed an IC50 below 0.1 µM. For the molecule `COc1ccc(-c2sc(NCC3CCCCC3)nc2C)cc1S(=O)(=O)NC1CCN(C2CCCCC2)CC1` [Compound S-136], the IC50 in assay [1] is below 0.1 µM. In assay [2], `COc1ccc(-c2sc(N[C@H](C)C3CCCCC3)nc2C)cc1S(=O)(=O)NC1CCCNC1` (stereo partly shown) [Compound S-148] showed an IC50 above 10 µM. `COc1ccc(-c2sc(NC(=O)CC3CCCC3)nc2C)cc1S(=O)(=O)N[C@H]1CC[C@H](O)CC1` [Compound S-151] showed an IC50 in assay [1] below 0.1 µM. Turning to `COc1ccc(-c2sc(NC(=O)CC3CCCC3)nc2C)cc1S(=O)(=O)NCCCCO` [Compound S-152], the IC50 in assay [1] was below 0.1 µM. In turn, `COc1ccc(-c2sc(NC(=O)CC3CCCC3)nc2C)cc1S(=O)(=O)N1CC[C@@H](O)C1` [Compound S-153] returned an IC50 in assay [1] below 0.1 µM. Still for that read-out and setting: under `COc1ccc(-c2sc(NC3CCCCC3)nc2C)cc1S(=O)(=O)N[C@H]1CC[C@H](O)CC1` [Compound S-166] stands below 0.1 µM; under `COc1ccc(-c2sc(NC3CCCCC3)nc2C)cc1S(=O)(=O)N[C@H]1CC[C@@H](O)CC1` [Compound S-167], below 0.1 µM. The same measure, in the same setting: under `COc1ccc(-c2sc(N[C@@H](C)C3CCCCC3)nc2C)cc1S(=O)(=O)N[C@H]1CC[C@H](O)CC1` [Compound S-183] stands below 0.1 µM; under `Cc1ccc(-c2sc(NC(=O)CC3CCCC3)nc2C)cc1S(=O)(=O)NC1CCNCC1` [Compound S-188], below 0.1 µM. `COc1ccc(-c2sc(N[C@H](C)C3CCCCC3)nc2C)cc1S(=O)(=O)N[C@@H]1CCNC1` [Compound S-197] registered an IC50 in assay [1] below 0.1 µM. Same read-out and setting: under `COc1ccc(-c2sc(N[C@H](C)C3CCCCC3)nc2C)cc1S(=O)(=O)N[C@H]1CC[C@@H](O)CC1` [Compound S-198] stands 0.1 to 1 µM.

For `COc1ccc(-c2sc(N[C@H](C)C3CCCCC3)nc2C)cc1S(=O)(=O)N[C@H]1CCNC1` [Compound S-201], in assay [1], the IC50 was below 0.1 µM.

`COc1ccc(-c2sc(NCCC3CCCCC3)nc2C)cc1S(=O)(=O)NC1CCNCC1` [Compound S-202]: the IC50 in assay [1] was below 0.1 µM.

In the case of `COc1ccc(-c2sc(N[C@@H](C)C3CCCCC3)nc2C)cc1S(=O)(=O)N[C@H]1CC[C@@H](O)CC1` [Compound S-206], the IC50 in assay [1] was in the range of 1 to 10 µM. `COc1ccc(-c2sc(NCCC3CCCCC3)nc2C)cc1S(=O)(=O)NC1CCC(O)C1` (stereo not shown) [Compound S-214] had an IC50 in assay [2] above 10 µM. As for `COc1ccc(-c2sc(NC(C)(C)C)nc2C)cc1S(=O)(=O)NC1CCNCC1` [Compound S-219], the IC50 in assay [1] was below 0.1 µM. `COc1ccc(-c2sc(NCC(C)C)nc2C)cc1S(=O)(=O)N[C@H]1CC[C@H](O)CC1` [Compound S-221] showed an IC50 in assay [1] below 0.1 µM. On the same count and under the same terms, under `COc1ccc(-c2sc(NCC(C)C)nc2C)cc1S(=O)(=O)N[C@H]1CC[C@@H](O)CC1` [Compound S-222] stands below 0.1 µM. For `COc1ccc(-c2sc(NC(=O)CC3CCOCC3)nc2C)cc1S(=O)(=O)Nc1cccc(C)c1` [Compound S-226], the IC50 in assay [1] is below 0.1 µM.

`COc1ccc(-c2sc(NC(=O)CC3CCOCC3)nc2C)cc1S(=O)(=O)Nc1ccccc1F` [Compound S-230] gave an IC50 in assay [1] below 0.1 µM. Consider `COc1ncc(-c2sc(NC(=O)CC3CCOCC3)nc2C)cc1S(=O)(=O)Nc1ccc(F)cc1F` [Compound S-258], for which, in assay [1], the IC50 lay in the range of 1 to 10 µM. With `COc1ccc(-c2sc(NC(C)C3CCOCC3)nc2C)cc1S(=O)(=O)Nc1ccccc1C` (stereo not shown) [Compound S-315], the EC50 in assay [5] and in assay [6] was 0.001 to 0.1 µM in each case. Turning to `COc1ccc(-c2sc(NC(C)C3CCOCC3)nc2C)cc1S(=O)(=O)Nc1ccc(O)cc1C` (stereo not shown) [Compound S-317], the half-maximal effective concentration (EC50) in assay [5] and in assay [6] was 0.001 to 0.1 µM throughout. With `COc1ccc(-c2sc(NC(C)C3CCOCC3)nc2C)cc1S(=O)(=O)Nc1ccc(O)cc1Cl` (stereo not shown) [Compound S-318], the concentration giving a half-maximal response (EC50) in assay [5] is 0.001 to 0.1 µM; in assay [6] it was below 0.001 µM. For `COc1ccc(-c2sc(NC(C)C3CCOCC3)nc2C)cc1S(=O)(=O)Nc1ccc(O)cc1` (stereo not shown) [Compound S-319] the same measures were 0.001 to 0.1 µM and 0.001 to 0.1 µM.

Turning to `COc1ccc(-c2sc(NC(C)C3CCOCC3)nc2C)cc1S(=O)(=O)Nc1cccc(O)c1` (stereo not shown) [Compound S-320], the EC50 in assay [5] and in assay [6] was 0.001 to 0.1 µM each time.

Consider `COc1ccc(-c2sc(NC(C)C3CCOCC3)nc2C)cc1S(=O)(=O)Nc1c(F)cccc1F` (stereo not shown) [Compound S-321], for which the concentration for a half-maximal effect (EC50) in assay [5] and in assay [6] was 0.001 to 0.1 µM throughout. With `COc1ccc(-c2sc(NC(C)C3CCOCC3)nc2C)cc1S(=O)(=O)Nc1c(F)cccc1Cl` (stereo not shown) [Compound S-322], the EC50 in assay [5] and in assay [6] was 0.001 to 0.1 µM in each case. Regarding `COc1ccc(-c2sc(NC(C)C3CCOCC3)nc2C)cc1S(=O)(=O)Nc1c(C)cccc1F` (stereo not shown) [Compound S-323], the EC50 in assay [5] and in assay [6] was below 0.001 µM throughout. With `COC(=O)c1ccc(NS(=O)(=O)c2cc(-c3sc(NC(C)C4CCOCC4)nc3C)ccc2OC)cc1` (stereo not shown) [Compound S-324], the EC50 in assay [5] and in assay [6] was 0.001 to 0.1 µM each time.

Regarding `COc1ccc(-c2sc(NC(C)C3CCOCC3)nc2C)cc1S(=O)(=O)Nc1ccc(C(=O)O)cc1` (stereo not shown) [Compound S-325], the EC50 in assay [5] and in assay [6] was 1 to 10 µM each time.

In the case of `COc1ccc(-c2sc(NC(C)C3CCOCC3)nc2C)cc1S(=O)(=O)NC1CCNCC1` (stereo not shown) [Compound S-326], the half-maximal effective concentration (EC50) in assay [5] fell in the range of 0.1 to 1 µM; in assay [6], 0.001 to 0.1 µM. With `COc1ccc(-c2sc(NC(C)C3CCOCC3)nc2C)cc1S(=O)(=O)NC1CCC(OC(C)=O)CC1` (stereo not shown) [Compound S-327], the EC50 in assay [5] and in assay [6] was 0.001 to 0.1 µM each time.

With `COc1ccc(-c2sc(NC(C)C3CCOCC3)nc2C)cc1S(=O)(=O)Nc1ncccc1C` (stereo not shown) [Compound S-329], the EC50 in assay [5] and in assay [6] was 0.001 to 0.1 µM each time. `COc1ccc(-c2sc(NC(C)C3CCOCC3)nc2C)cc1S(=O)(=O)Nc1ncccc1F` (stereo not shown) [Compound S-330]: the concentration for a half-maximal effect (EC50) in assay [5] was 1 to 10 µM; in assay [6], 0.1 to 1 µM.

Regarding `COc1ccc(-c2sc(NC(C)C3CCOCC3)nc2C)cc1S(=O)(=O)Nc1cccnc1C` (stereo not shown) [Compound S-331], the EC50 in assay [5] and in assay [6] was 0.001 to 0.1 µM throughout. With `COc1ccc(-c2sc(NC(C)C3CCOCC3)nc2C)cc1S(=O)(=O)Nc1c(F)cncc1F` (stereo not shown) [Compound S-333], the EC50 in assay [5] and in assay [6] was 0.1 to 1 µM in each case. Consider `COc1ncc(-c2sc(NC(C)C3CCOCC3)nc2C)cc1S(=O)(=O)Nc1ccc(O)cc1F` (stereo not shown) [Compound S-334], for which the EC50 in assay [5] and in assay [6] was 0.001 to 0.1 µM each time. Regarding `COc1ncc(-c2sc(NC(C)C3CCOCC3)nc2C)cc1S(=O)(=O)Nc1ccccc1C` (stereo not shown) [Compound S-335], the half-maximal effective concentration (EC50) in assay [5] and in assay [6] was 0.001 to 0.1 µM throughout. On to `COc1ncc(-c2sc(NC(C)C3CCOCC3)nc2C)cc1S(=O)(=O)Nc1ccc(F)cc1F` (stereo not shown) [Compound S-336], for which the EC50 in assay [5] and in assay [6] was 0.001 to 0.1 µM in each case. As for `COc1ncc(-c2sc(NC(C)C3CCOCC3)nc2C)cc1S(=O)(=O)Nc1ccc(F)cc1Cl` (stereo not shown) [Compound S-337], the EC50 in assay [5] is 0.1 to 1 µM; in assay [6] it was 0.001 to 0.1 µM. For `COc1ncc(-c2sc(NC(C)C3CCOCC3)nc2C)cc1S(=O)(=O)Nc1ccc(F)cc1C` (stereo not shown) [Compound S-338], the EC50 in assay [5] and in assay [6] was 0.001 to 0.1 µM each time.

Take `COc1ncc(-c2sc(NC(C)C3CCOCC3)nc2C)cc1S(=O)(=O)Nc1ccccc1F` (stereo not shown) [Compound S-339]: the EC50 in assay [5] and in assay [6] was 0.001 to 0.1 µM each time.

On to `COc1ncc(-c2sc(NC(C)C3CCOCC3)nc2C)cc1S(=O)(=O)Nc1ccc(O)cc1C` (stereo not shown) [Compound S-340], for which the EC50 in assay [5] and in assay [6] was 0.001 to 0.1 µM in each case. Regarding `COc1ncc(-c2sc(NC(C)C3CCOCC3)nc2C)cc1S(=O)(=O)Nc1ccccc1Cl` (stereo not shown) [Compound S-341], the EC50 in assay [5] and in assay [6] was 0.001 to 0.1 µM throughout. On to `COc1ncc(-c2sc(NC(C)C3CCOCC3)nc2C)cc1S(=O)(=O)Nc1ccc(O)cc1Cl` (stereo not shown) [Compound S-375], for which the EC50 in assay [5] and in assay [6] was 0.001 to 0.1 µM each time.
